These results are taken from patent publication US5807868A, “Isoquinoline derivatives as therapeutic agents” (Knoll Aktiengesellschaft, priority 1993, dated 1998).

Counter-ions that a name gives are not always drawn.

Experiment [1] addresses D1 dopamine receptors (Rattus norvegicus, UniProt P18901). The experiment can be described thus: Inhibition of tritiated SCH 23390 binding to D1 dopamine receptors, rat striatal samples. The settings on record: for Ki: rat striatum, tritiated SCH 23390, pH 7.4, 37° C., 30 minutes; for Ki for D2 / Ki for D1: ratio between the D2 and D1 Ki values, to two significant figures. On the set-up: species or system rat (male Charles River CD rats). On the procedure:
(§1) Striatal samples from the brains of male Charles River CD rats weighing between 140-250 g were homogenised in ice-cold 50 mM Tris-HCl buffer (pH 7.4 when measured at 25° C. for D1 binding assays and pH 7.7 when measured at 25° C. for D2 binding assays) and centrifuged for 10 minutes (at 21,000 g when used for D1 binding assay and 40,000 g when used for D2 binding assays). The pellet was resuspended in the same buffer, again centrifuged and the final pellet stored at -80° C. Before each test the pellet was resuspended in 50 mM Tris-HCl buffer containing 120 mM NaCl, 5 mM KCl, 2 mM CaCl2 and 1 mM MgCl2 at pH 7.4 for the D1 binding assays and at pH 7.7 with the addition of 6 mM ascorbic acid for the D2 binding assays. Aliquots of this suspension were then added to tubes containing the ligand and either the compound under test or buffer. For the D1 binding assays the ligand was tritiated SCH 23390 and the mixture was incubated at 37° C. for 30 minutes before the incubation was terminated by rapid filtration. For the D2 binding assays the ligand was tritiated (S)-sulpiride and the mixture was incubated at 4° C. for 40 minutes before the incubation was terminated by rapid filtration. Non-specific binding was determined experimentally by the addition of saturating concentrations of chloropromazine or spiroperidol for D1 and D2 receptors respectively.
(§2) The filters were washed with ice-cold Tris-HCl buffer and dried. The filters were punched out into vials containing scintillation fluid and were left for about 20 hours before being counted by scintillation spectrophotometry. Competition binding curves were produced over a range of concentrations of the compound under test and the inhibition coefficient Ki was derived from the data by use of the non-linear curve fitting computer programe EBDA (Biosoft).

In experiment [2] the target is D2 dopamine receptors (Rattus norvegicus, UniProt P61169). The experiment in a line: Inhibition of tritiated (S)-sulpiride binding to D2 dopamine receptors, rat striatal samples. Conditions: rat striatum, pH 7.7, 4° C., 40 minutes. Also noted: species or system rat (male Charles River CD rats). On the procedure:
as §1, §2

D1 dopamine receptors, sequence (P18901 whole entry): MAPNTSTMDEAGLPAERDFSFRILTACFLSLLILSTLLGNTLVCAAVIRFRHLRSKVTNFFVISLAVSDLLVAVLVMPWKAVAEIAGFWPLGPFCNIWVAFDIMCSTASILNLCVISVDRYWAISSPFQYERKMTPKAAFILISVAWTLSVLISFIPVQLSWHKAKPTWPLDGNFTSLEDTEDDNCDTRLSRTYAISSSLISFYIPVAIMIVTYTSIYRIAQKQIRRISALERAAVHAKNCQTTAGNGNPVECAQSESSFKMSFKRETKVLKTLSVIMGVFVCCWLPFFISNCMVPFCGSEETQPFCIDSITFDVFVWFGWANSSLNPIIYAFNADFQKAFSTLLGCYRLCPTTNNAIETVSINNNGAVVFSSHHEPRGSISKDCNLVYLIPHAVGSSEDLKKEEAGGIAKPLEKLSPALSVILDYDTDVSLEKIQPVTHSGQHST
D2 dopamine receptors, sequence (P61169 whole entry): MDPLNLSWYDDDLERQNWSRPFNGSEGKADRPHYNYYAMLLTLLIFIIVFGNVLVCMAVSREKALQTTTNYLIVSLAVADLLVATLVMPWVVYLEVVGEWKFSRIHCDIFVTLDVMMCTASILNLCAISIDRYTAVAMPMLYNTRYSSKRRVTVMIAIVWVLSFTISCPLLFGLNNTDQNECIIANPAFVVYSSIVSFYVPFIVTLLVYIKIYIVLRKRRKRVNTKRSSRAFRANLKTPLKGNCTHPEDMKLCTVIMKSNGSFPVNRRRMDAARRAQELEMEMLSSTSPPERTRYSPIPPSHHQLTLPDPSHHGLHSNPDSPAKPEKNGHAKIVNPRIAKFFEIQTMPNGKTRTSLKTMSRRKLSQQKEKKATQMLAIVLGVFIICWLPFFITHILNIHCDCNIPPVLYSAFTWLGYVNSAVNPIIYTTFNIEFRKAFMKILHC

What is called Ki is the dissociation constant of the complex between target and ligand, obtained from inhibition or displacement. For `Br.Cc1cc2c(cc1O)C(C1(c3ccsc3)CC1)N(C)CC2` (racemic) [Example 8, (±)-7-hydroxy-2,6-dimethyl-1-[1-(3-thienyl)cyclopropyl]-1,2,3,4-tetrahydroisoquinoline hydrobromide], in experiment [1], the Ki was determined as 5.9 nM and the “Ki for D2 / Ki for D1” value amounted to 220. In experiment [2], this compound yielded a Ki of 1300 nM.
In the case of `Cc1cc2c(cc1O)C(C1(c3ccsc3)CC1)N(C)CC2.O=C(O)C(=O)O` (single isomer, unassigned; (-)) [Example 6, (-)-7-hydroxy-2,6-dimethyl-1-[1-(3-thienyl)cyclopropyl]-1,2,3,4-tetrahydroisoquinoline oxalate], in experiment [1], the affinity, expressed as Ki, was 2.1 nM and the “Ki for D2 / Ki for D1” value amounted to 2300. Also, in experiment [2], the affinity, expressed as Ki, was 4900 nM.
On the same counts, the results for `Cc1cc2c(cc1O)C(C1(c3ccsc3)CC1)N(C)CC2` (single isomer, unassigned; (-)) [Example 7, (-)-7-hydroxy-2,6-dimethyl-1-[1-(3-thienyl)cyclopropyl]-1,2,3,4-tetrahydroisoquinoline hydrochloride 0.8 hydrate] are 4.2 nM, 2000 and 8500 nM.
Regarding `Br.CC(C)CC1(C2c3cc(O)ccc3CCN2C)CCC1` (stereo not drawn) [Example 1, 7-hydroxy-2-methyl-1-[1-(2-methylpropyl)cyclobutyl]-1,2,3,4-tetrahydroisoquinoline hydrobromide], the Ki in experiment [1] came out at 370 nM; in experiment [2], 25000 nM. Moreover, the “Ki for D2 / Ki for D1” value in experiment [1] came to 68.
On the same counts, the results for `Cc1cc2c(cc1O)C(C1(CC3CCCC3)CC1)N(C)CC2` (stereo not drawn) [Example 2, 1-[1-(cyclopentylmethyl)cyclopropyl]-7-hydroxy-2,6-dimethyl-1,2,3,4-tetrahydroisoquinoline] are 7.9 nM, 2300 nM and 290.
With `Cc1cc2c(cc1O)C(C1(C3C=CCCC3)CCC1)N(C)CC2.O=C(O)C(=O)O` (stereo not drawn) [Example 3, 1-[1-(cyclohex-1-en-3-yl)cyclobutyl]-7-hydroxy-2,6-dimethyl-1,2,3,4-tetrahydroisoquinoline oxalate], in experiment [1], the inhibition constant Ki came out at 77 nM and the “Ki for D2 / Ki for D1” value was found to be 120. This compound came in with a Ki in experiment [2] of 9500 nM.
On the same counts, the results for `Cc1cc2c(cc1O)C(C1(C3CCCc4ccccc43)CC1)N(C)CC2` (stereo not drawn) [Example 4, 7-hydroxy-2,6-dimethyl-1-[1-(1,2,3,4-tetrahydronaphth-1-yl)cyclopropyl]-1,2,3,4-tetrahydroisoquinoline 1.05 hydrochloride 0.7 hydrate] are 6.7 nM, 28 and 190 nM.
The like results for `Br.Cc1cc2c(cc1O)C(C1(c3cccs3)CC1)N(C)CC2` (stereo not drawn) [Example 5, 7-hydroxy-2,6-dimethyl-1-[1-(2-thienyl)cyclopropyl]-1,2,3,4-tetrahydroisoquinoline hydrobromide] were, in that order, 32 nM, 94 and 3000 nM.
On the same counts, the results for `Cc1cc2c(cc1O)C(C1(c3ccco3)CC1)N(C)CC2.O=C(O)/C=C\C(=O)O` (stereo not drawn) [Example 9, 1-[1-(2-furyl)cyclopropyl]-7-hydroxy-2,6-dimethyl-1,2,3,4-tetrahydroisoquinoline maleate] are 40 nM, 220 and 8900 nM.
As for `CN1CCc2ccc(O)cc2C1C1(c2ccccn2)CCC1.O=C(O)C(=O)O` (stereo not drawn) [Example 10, 7-hydroxy-2-methyl-1-[1-(2-pyridyl)cyclobutyl]-1,2,3,4-tetrahydroisoquinoline oxalate], the results for the Ki in experiment [1] and in experiment [2] were 160 nM and 7000 nM, respectively. Besides, the “Ki for D2 / Ki for D1” value in experiment [1] stood at 44.
The like results for `Cc1cc2c(cc1O)C(C1(c3ccccn3)CC1)N(C)CC2` (stereo not drawn) [Example 11, 7-hydroxy-2,6-dimethyl-1-[1-(2-pyridyl)cyclopropyl]-1,2,3,4-tetrahydroisoquinoline] were, in that order, 140 nM, 1100 nM and 79.
